The target of this experiment is Urease (Canavalia ensiformis, UniProt P07374). Briefly: Urease Inhibition Assay.
Sequence of Urease (P07374 whole entry): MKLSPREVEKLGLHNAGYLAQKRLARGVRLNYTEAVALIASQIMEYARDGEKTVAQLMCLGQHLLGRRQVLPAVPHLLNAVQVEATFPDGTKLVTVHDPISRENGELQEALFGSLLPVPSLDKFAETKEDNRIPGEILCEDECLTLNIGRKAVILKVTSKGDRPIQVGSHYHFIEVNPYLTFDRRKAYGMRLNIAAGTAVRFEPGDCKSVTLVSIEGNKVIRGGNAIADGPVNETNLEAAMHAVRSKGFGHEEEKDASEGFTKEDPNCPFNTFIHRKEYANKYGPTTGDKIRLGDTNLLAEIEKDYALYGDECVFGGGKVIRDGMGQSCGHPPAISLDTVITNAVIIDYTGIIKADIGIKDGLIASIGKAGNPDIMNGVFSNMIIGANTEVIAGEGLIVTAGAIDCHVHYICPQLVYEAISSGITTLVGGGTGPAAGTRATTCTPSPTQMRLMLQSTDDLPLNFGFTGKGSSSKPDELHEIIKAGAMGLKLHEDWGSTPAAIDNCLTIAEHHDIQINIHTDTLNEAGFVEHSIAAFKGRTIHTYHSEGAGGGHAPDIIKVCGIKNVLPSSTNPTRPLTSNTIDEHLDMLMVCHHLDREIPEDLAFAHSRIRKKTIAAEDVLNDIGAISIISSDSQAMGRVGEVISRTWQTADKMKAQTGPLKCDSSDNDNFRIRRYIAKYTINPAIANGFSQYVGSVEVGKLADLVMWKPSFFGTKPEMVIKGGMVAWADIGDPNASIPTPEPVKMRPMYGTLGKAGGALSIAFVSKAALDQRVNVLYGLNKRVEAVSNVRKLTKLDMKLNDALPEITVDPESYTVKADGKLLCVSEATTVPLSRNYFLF
For the molecule `Cc1ccc(Nc2nnc(C(O)c3ccccc3)o2)cc1` (stereo unspecified) [5-(Hydroxybenzyl)-2-(4-methylphenyl)amino-1,3,4-oxadiazole (4d)], the IC50 was 16.1 µM.
The result for `O=[N+]([O-])c1ccc(Nc2nnc(C(O)c3ccccc3)o2)cc1` (stereo unspecified) [5-(Hydroxybenzyl)-2-(4-nitrophenyl)amino-1,3,4-oxadiazole (4e)] reads 80.3 µM; that for `OC(c1ccccc1)c1n[nH]c(=S)n1-c1ccc(Br)cc1` (stereo unspecified) [5-(Hydroxybenzyl)-4-(4-bromophenyl)-2H-1,2,4-triazole-3-thione (5a)], 32 µM.
With `OC(c1ccccc1)c1n[nH]c(=S)n1-c1ccc(Cl)cc1` (stereo unspecified) [5-(Hydroxybenzyl)-4-(4-chlorophenyl)-2H-1,2,4-triazole-3-thione (5b)], the half-maximal inhibitory concentration (IC50) is 18.9 µM.
For the molecule `Cc1ccc(-n2c(C(O)c3ccccc3)n[nH]c2=S)cc1` (stereo unspecified) [5-(Hydroxybenzyl)-4-(4-methylphenyl)-2H-1,2,4-triazole-3-thione (5d)], half-maximal inhibition (IC50) required 16.7 µM.
Regarding `O=[N+]([O-])c1ccc(-n2c(C(O)c3ccccc3)n[nH]c2=S)cc1` (stereo unspecified) [5-(Hydroxybenzyl)-4-(4-nitrophenyl)-2H-1,2,4-triazole-3-thione (5e)], it took 132 µM to reach half-maximal inhibition (IC50).

A word on the IC50: it is the point on the concentration scale where inhibition reaches its midpoint. A higher IC50 goes with weaker potency in that assay.

For the origin of these results see BindingDB's records for doi:10.3109/14756360903389864 (Quaid-I-Azam University, 2010).
